Results from ChEMBL document CHEMBL1201862, “PubChem BioAssay data set” (2004).
Calls of active or inactive are those of the source.

How the values were obtained:
[1] = inhibitors of intracellular T. cruzi replication, confirmation, NIH3T3 host cells, beta-gal luminescence (AID 2044); assay type: functional, cell-based;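 also: intracellular parasites grown in NIH/3T3 mouse fibroblasts as host cells; luminescent beta-galactosidase reporter signal from transgenic T. cruzi replicating inside host cells; inhibitors lower the luminescence signal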
[2] = cytotoxicity toward NIH3T3 fibroblasts, dose response, counter-screen, cell-based, ATP luminescence, mouse fibroblasts (AID 2010); assay type: functional;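 also: cells exposed to compound for about 90 hours before reading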
[3] = Vero cell cytotoxicity, dose response, cytotoxicity control for Vif-APOBEC3G degradation inhibitor project, Vero cells (AID 1117358); assay type: functional; conditions: Human immunodeficiency virus 1, Vero
[4] = system: Vero; assay: Vero cell cytotoxicity, cytotoxicity control for flavivirus capping enzyme inhibitors (AID 588742); assay type: functional; conditions: Chlorocebus sabaeus
[5] = molecular target: Protein Tat (Human immunodeficiency virus type 1 group M subtype B (isolate HXB2)(HIV-1), UniProt P04608); assay type: functional;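 also: tat binding to TAR RNA read out by fluorescence polarization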
Protein Tat, sequence (P04608 whole entry): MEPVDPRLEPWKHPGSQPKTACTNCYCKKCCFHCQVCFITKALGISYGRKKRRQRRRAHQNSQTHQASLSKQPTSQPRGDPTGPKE

[6] = molecular target: Heat shock protein HSP90 (Homo sapiens, UniProt P07900+P08238); assay: tumor Hsp90 inhibitor potency, dose response (AID 712); assay type: functional
[7] = molecular target: T1, Mannose-6-phosphate isomerase (Homo sapiens, UniProt P34949); assay: human PMI inhibitors, high substrate, primary screen, biochemical, fluorescence intensity, high mannose 6-phosphate (AID 1220)
T1 sequence (P34949 whole entry): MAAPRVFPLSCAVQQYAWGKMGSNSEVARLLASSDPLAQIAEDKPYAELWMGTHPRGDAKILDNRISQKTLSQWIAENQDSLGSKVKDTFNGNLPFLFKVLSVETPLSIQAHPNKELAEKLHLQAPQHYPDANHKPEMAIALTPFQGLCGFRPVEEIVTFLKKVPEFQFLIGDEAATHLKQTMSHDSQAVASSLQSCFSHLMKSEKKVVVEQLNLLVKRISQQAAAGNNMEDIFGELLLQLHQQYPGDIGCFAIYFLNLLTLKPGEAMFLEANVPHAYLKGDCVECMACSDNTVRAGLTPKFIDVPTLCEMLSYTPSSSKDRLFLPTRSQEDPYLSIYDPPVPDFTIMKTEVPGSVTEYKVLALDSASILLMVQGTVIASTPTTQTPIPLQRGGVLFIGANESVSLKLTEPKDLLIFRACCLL

[8] = molecular target: T2, Replicative DNA helicase DnaB (Mycobacterium tuberculosis, UniProt P9WMR3); assay: DnaB intein splicing inhibitors, dose response, biochemical, cell-free fluorescence (AID 449749); assay type: functional
T2 sequence (P9WMR3 whole entry): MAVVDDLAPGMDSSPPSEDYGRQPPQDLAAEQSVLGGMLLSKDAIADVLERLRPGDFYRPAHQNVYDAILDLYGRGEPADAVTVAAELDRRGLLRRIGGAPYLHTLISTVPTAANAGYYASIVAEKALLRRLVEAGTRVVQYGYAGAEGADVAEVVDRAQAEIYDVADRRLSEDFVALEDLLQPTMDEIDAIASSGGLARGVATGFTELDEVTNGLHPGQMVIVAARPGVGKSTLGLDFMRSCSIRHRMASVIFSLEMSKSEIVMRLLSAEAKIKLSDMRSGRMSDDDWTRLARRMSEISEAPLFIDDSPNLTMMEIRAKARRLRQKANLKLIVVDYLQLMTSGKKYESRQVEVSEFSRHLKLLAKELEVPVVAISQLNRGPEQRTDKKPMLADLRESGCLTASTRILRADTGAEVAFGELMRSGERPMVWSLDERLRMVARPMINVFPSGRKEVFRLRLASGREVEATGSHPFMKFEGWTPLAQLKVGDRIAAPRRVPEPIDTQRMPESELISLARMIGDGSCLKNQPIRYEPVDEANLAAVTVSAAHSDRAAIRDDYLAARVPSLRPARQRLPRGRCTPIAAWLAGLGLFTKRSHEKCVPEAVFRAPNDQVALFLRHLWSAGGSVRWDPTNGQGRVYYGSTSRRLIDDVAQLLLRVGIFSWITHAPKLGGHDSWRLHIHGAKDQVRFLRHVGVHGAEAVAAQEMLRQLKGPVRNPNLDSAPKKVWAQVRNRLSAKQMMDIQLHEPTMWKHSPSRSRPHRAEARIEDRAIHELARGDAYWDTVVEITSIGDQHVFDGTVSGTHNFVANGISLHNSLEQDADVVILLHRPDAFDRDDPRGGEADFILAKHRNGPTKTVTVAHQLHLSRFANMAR

[9] = molecular target: T3, Protein RecA (Mycobacterium tuberculosis, UniProt P9WHJ3); assay: Fluorescence Cell-Free Homogeneous Dose Retest to Identify Inhibitors of RecA-Intein Splicing Activity. [Related pubchem assays (depositor defined):AID2097, AID2223, AID489010, AID492950]; assay type: functional
T3 sequence (P9WHJ3 whole entry): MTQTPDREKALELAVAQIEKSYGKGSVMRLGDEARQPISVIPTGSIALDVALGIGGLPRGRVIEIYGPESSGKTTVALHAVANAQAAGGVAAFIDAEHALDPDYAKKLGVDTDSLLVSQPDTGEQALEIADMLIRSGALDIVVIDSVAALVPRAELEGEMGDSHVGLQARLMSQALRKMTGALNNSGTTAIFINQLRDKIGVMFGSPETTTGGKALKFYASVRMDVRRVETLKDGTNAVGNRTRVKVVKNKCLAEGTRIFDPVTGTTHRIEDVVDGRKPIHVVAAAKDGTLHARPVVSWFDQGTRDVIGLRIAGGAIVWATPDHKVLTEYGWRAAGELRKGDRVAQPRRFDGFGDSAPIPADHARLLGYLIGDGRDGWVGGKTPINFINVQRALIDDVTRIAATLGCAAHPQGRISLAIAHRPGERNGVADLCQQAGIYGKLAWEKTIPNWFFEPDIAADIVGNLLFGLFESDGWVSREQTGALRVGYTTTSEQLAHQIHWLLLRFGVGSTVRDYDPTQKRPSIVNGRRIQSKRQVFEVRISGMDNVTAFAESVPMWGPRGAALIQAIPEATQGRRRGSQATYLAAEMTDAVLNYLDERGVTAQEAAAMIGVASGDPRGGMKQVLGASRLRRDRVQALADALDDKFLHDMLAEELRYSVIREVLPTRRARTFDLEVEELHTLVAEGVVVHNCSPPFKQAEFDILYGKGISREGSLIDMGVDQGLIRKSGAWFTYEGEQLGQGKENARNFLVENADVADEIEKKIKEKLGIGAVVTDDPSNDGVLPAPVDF

[10] = Dose-response inhibition of insulin secretion in a rat insulinoma line at 5 mM glucose (AID 1117331); assay type: functional, cell-based; conditions: INS-1E
[11] = Concentration-dependent survival of SW480 colon cancer line, luminescence detection with CellTiter-Glo, half-maximal inhibitory concentration (AID 1117338); assay type: functional
[12] = RKO cell viability reduction, dose response, CellTiter-Glo luminescence (AID 1117322); assay type: functional
[13] = cytotoxicity toward HCT116 cells – cell-based, CellTiter-Glo luminescence, IC50, dose response (AID 1117332); assay type: functional; conditions: HCT-116
[14] = SNU-C1 cell viability reduction, dose response, CellTiter-Glo luminescence (AID 1117323); assay type: functional, cell-based
[15] = cytotoxicity toward Colo320 cells – cell-based, CellTiter-Glo luminescence, IC50, dose response (AID 1117334); assay type: functional; conditions: COLO 320
[16] = cytotoxicity toward HT-29 cells – cell-based, CellTiter-Glo luminescence, IC50, dose response (AID 1117330); assay type: functional
[17] = CellTiter-Glo luminescent dose response of DLD-1 viability loss (AID 1117352); assay type: functional
[18] = HCT116 cell viability decrease, GSK3B pretreatment – CellTiter-Glo, IC50, dose response (AID 1117339); assay type: functional; conditions: HCT-116

**Q.** Which EC50 [1] does the source give for CN(C)S(=O)(=O)c1ccc(NC(=O)N2CCN(c3cccc(C(F)(F)F)c3)CC2)cc1 here?
**A.** The EC50 was 3.61 µM (active).

**Q.** What about the EC50 [2] of the same compound?
**A.** The EC50 was > 60 µM (not active).

**Q.** And the CC50 [3]?
**A.** The CC50 was > 40 µM (active).

**Q.** With COC(=O)C1=C(O)/C(=C\c2ccc(CNC(=O)C(=O)Nc3ccc(C)cc3)o2)N=C1C as the compound, how does the CC50 [4] read?
**A.** The CC50 was 19 µM (active).

**Q.** What about the IC50 [5] of the same compound?
**A.** Its IC50 is 22.5 µM (inconclusive).

**Q.** Which IC50 [6] does the source give for Oc1ccc(/C=N/c2ccc3ncccc3c2)c(O)c1 here?
**A.** Its IC50 is > 50 µM.

**Q.** And the IC50 [7]?
**A.** Its IC50 is > 50 µM (not active).

**Q.** And the AC50 [8]?
**A.** Its AC50 is 11.5 µM (active).

**Q.** What about the EC50 [9] of the same compound?
**A.** The EC50 was 29 µM (active).

**Q.** For CN1CCN(CCC(=O)N2c3ccccc3Sc3ccc(C(F)(F)F)cc32)CC1 [FTORMETAZINE], which IC50 [10] is on record?
**A.** The IC50 was > 11.1 µM (inactive).

**Q.** Which IC50 [11] does the source give for COc1ccc2c(c1)c1c3n2CCN(C)C3=NCC1 [METRALINDOLE] here?
**A.** The IC50 was > 20 µM (inactive).

**Q.** And the IC50 [12]?
**A.** Its IC50 is > 20 µM (inactive).

**Q.** What about the IC50 [13] of the same compound?
**A.** Its IC50 is > 20 µM (inactive).

**Q.** And the IC50 [14]?
**A.** Its IC50 is > 20 µM (inactive).

**Q.** And the IC50 [15]?
**A.** Its IC50 is > 20 µM (inactive).

**Q.** What about the IC50 [16] of the same compound?
**A.** The IC50 was > 20 µM (inactive).

**Q.** What about the IC50 [17] of the same compound?
**A.** Its IC50 is > 20 µM (inactive).

**Q.** And the IC50 [18]?
**A.** The IC50 was > 20 µM (inactive).
